# Like-named read-outs stand apart in the source and are kept apart here.
# How the values were obtained:
# [1] = molecular target: T1, human TDO (TDO-expressing HEK293 cells) (Homo sapiens, UniProt P48775); experiment: Cell based kynurenine assay, TDO-expressing HEK293 cell clones; settings: TDO-expressing HEK293 cells, geometric mean, read-out: HEK293 TDO Kynurenine GMean IC50 (μM) (Cellular Assay)
# T1 construct: expressed in transfected cells
# Method: (§1) Determine Inhibitor Activity Against IDO or TDO in Cell Based Kynurenine Assay
# (§2) IDO1-expressing or TDO-expressing HEK293 cell clones are generated upon stable transfection of plasmids expressing human IDO or human TDO under the control of CMV promoter. Cells are selected in DMEM media supplemented with 10% fetal bovine serum and 1 mg/ml G418 at 37° C. in a humidified incubator supplied with 5% CO2. The assays are performed as follows.
# (§3) Cells were seeded in a 96 well plate in 50 μL of culture media at a density of 2.5×10^4 per well. Serial dilutions of compounds (in total volume of 50 μL culture media) are added into cells. 4 wells containing 0.2% DMSO treated cells serve as high controls and 4 wells containing media only with 0.2% DMSO serve as low controls. After 24 hours of incubation, the supernatant was transferred to a 384 well reaction plate and the kynurenine level determined. The percentage inhibition at individual concentrations relative to high and low controls is calculated. The data is analyzed by using nonlinear regression to generate IC50 values.
# [2] = molecular target: T2, Human Indoleamine 2,3-dioxygenase (IDO) (Homo sapiens, UniProt P14902); experiment: Human IDO enzymatic assay (kynurenine level); assay type: biochemical; settings: 6 nM IDO, 10 μM L-Trp; geometric mean; read-out: IDO1 GMean: IC50 (μM) (Biochemical Assay)
# T2 construct: His tag (N); made in house; host or cells: E. coli
# T2 sequence (P14902 whole entry): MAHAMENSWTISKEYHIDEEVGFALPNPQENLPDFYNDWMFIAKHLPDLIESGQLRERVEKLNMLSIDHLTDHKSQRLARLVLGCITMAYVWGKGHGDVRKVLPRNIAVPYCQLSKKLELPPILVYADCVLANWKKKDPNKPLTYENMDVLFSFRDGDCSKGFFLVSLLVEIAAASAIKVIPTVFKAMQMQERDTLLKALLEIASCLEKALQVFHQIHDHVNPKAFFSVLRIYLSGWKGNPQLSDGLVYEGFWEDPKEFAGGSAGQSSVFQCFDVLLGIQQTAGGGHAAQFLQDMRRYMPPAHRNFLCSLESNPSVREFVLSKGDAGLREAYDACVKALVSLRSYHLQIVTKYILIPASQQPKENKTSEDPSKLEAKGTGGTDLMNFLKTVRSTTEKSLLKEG
# Procedure, shortened: (§4)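 IDO conditions: 6 nM His-IDO, 10 μM L-Trp, 5 μM methylene blue, 20 min, RT. TDO conditions: 1 nM His-TDO, 350 μM L-Trp, 0.4 μM methylene blue, 70 min, RT. Both used pH 6.5 phosphate plus ascorbate/catalase, TCA stop at 50° C, kynurenine readout, nonlinear-regression IC50.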
# [3] = molecular target: T3, human IDO (IDO1-expressing HEK293 cells) (Homo sapiens, UniProt P14902); experiment: Cell based kynurenine assay, IDO1-expressing HEK293 cell clones; settings: IDO1-expressing HEK293 cells, geometric mean, read-out: HEK293 IDO1 Kynurenine GMean IC50 (μM) (Cellular Assay)
# T3 construct: expressed in transfected cells
# T3 sequence (P14902 whole entry): as above
# Method: as §1, §2, §3
# [4] = molecular target: T4, Human Tryptophan 2,3-dioxygenase (TDO) (Homo sapiens, UniProt P48775); experiment: Human TDO enzymatic assay (kynurenine level); assay type: biochemical; settings: 1 nM TDO, 350 μM L-Trp; geometric mean; read-out: TDO GMean: IC50 (μM) (Biochemical Assay)
# T4 construct: His tag (N); made in house; host or cells: E. coli
# T4 sequence (P48775 whole entry): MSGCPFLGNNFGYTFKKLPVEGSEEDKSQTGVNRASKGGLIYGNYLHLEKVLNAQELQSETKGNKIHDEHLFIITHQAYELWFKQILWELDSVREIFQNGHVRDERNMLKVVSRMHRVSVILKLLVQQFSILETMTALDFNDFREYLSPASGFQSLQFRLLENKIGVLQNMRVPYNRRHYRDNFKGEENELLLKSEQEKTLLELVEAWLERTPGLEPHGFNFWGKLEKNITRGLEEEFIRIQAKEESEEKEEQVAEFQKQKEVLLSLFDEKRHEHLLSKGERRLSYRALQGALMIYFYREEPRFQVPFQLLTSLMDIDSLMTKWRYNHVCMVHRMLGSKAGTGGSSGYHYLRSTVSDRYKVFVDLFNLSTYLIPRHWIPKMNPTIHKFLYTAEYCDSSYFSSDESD
# Procedure, shortened: as §4
# T1 sequence (P48775 whole entry): as above
SMILES,IC50 ([1]; 24 hours incubation) [µM],IC50 [2] [µM],IC50 ([3]; 24 hours incubation) [µM],IC50 [4] [µM],IC50 ([1]; 24 hours) [µM],IC50 ([3]; 24 hours) [µM]
"OC(c1cccc2cncn12)C1(F)CCC(F)(F)CC1 (stereo not drawn) [Compound P-0062, imidazo[1,5-a]pyridin-5-yl(1,4,4-trifluorocyclohexyl)methanol]",> 10,0.0001 to 10,> 10,0.0001 to 10,,
"CC(C)(C1CCN(C(=O)Nc2ccc(F)nc2)CC1)C(O)c1cc(Cl)cc2cn[nH]c12 (stereo not drawn) [Compound P-0558, 4-(1-(5-chloro-1H-indazol-7-yl)-1-hydroxy-2-methylpropan-2-yl)-N-(6-fluoropyridin-3-yl)piperidine-1-carboxamide]",,0.0001 to 10,,0.0001 to 10,0.0001 to 10,0.0001 to 10
"CC(C)(C1CCN(C(=O)CC(F)(F)F)CC1)[C@H](O)c1cc(Cl)cc2cn[nH]c12 [Compound P-0531, (S)-1-(4-(1-(5-chloro-1H-indazol-7-yl)-1-hydroxy-2-methylpropan-2-yl)piperidin-1-yl)-3,3,3-trifluoropropan-1-one]",,0.0001 to 10,,0.0001 to 10,0.0001 to 10,0.0001 to 10
"CC(C)(C1CCN(C(=O)c2ccccc2C(F)(F)F)CC1)C(O)c1cc(Cl)cc2cn[nH]c12 (stereo not drawn) [Compound P-0366, (4-(1-(5-chloro-1H-indazol-7-yl)-1-hydroxy-2-methylpropan-2-yl)piperidin-1-yl)(2-(trifluoromethyl)phenyl)methanone]",0.0001 to 10,0.0001 to 10,0.0001 to 10,0.0001 to 10,,
"CC(F)(F)C1(C(C)(F)F)CC(O)(c2cc(Cl)cc3cn[nH]c23)C1 [Compound P-0222, 1-(5-chloro-1H-indazol-7-yl)-3,3-bis(1,1-difluoroethyl)cyclobutan-1-ol]",0.0001 to 10,0.0001 to 10,0.0001 to 10,0.0001 to 10,,
"C[C@@H](NC(=O)N1CCC(C(C)(C)C(O)c2cc(Cl)cc3cn[nH]c23)CC1)c1ccccc1 (stereo partly drawn) [Compound P-0373, 4-(1-(5-chloro-1H-indazol-7-yl)-1-hydroxy-2-methylpropan-2-yl)-N-((R)-1-phenylethyl) piperidine-1-carboxamide]",0.0001 to 10,0.0001 to 10,0.0001 to 10,0.0001 to 10,,
"OC(CC1C2CCC1CNC2)c1cc(Cl)cc2cn[nH]c12 (stereo not drawn) [Compound P-0274, 2-(3-azabicyclo[3.2.1]octan-8-yl)-1-(5-chloro-1H-indazol-7-yl)ethan-1-ol]",> 10,10 to 100,> 10,10 to 100,,
"CS(=O)(=O)N1CC2CCC(C1)C2CC(O)c1cc(Cl)cc2cn[nH]c12 (stereo not drawn) [Compound P-0282, 1-(5-chloro-1H-indazol-7-yl)-2-(3-(methylsulfonyl)-3-azabicyclo[3.2.1]octan-8-yl)ethan-1-ol]",0.0001 to 10,0.0001 to 10,0.0001 to 10,0.0001 to 10,,
"OC(c1c(Cl)c(Cl)cc2cn[nH]c12)C1(C2CCCCC2)CC1 (stereo not drawn) [Compound P-0238, (1-cyclohexylcyclopropyl)(5,6-dichloro-1H-indazol-7-yl)methanol]",0.0001 to 10,0.0001 to 10,0.0001 to 10,0.0001 to 10,,
"CC(C)(C1CCN(C(=O)CN2CCS(=O)(=O)CC2)CC1)[C@H](O)c1cc(Cl)cc2cn[nH]c12 [Compound P-0497, (S)-1-(4-(1-(5-chloro-1H-indazol-7-yl)-1-hydroxy-2-methylpropan-2-yl)piperidin-l-yl)-2-(1,1-dioxidothiomorpholino) ethan-1-one]",,0.0001 to 10,,0.0001 to 10,0.0001 to 10,0.0001 to 10
"CC(C)(C1CCN(C(=O)C2CC2)CC1)[C@H](O)c1cc(Cl)cc2cn[nH]c12 [Compound P-0529, (S)-(4-(1-(5-chloro-1H-indazol-7-yl)-1-hydroxy-2-methylpropan-2-yl)piperidin-1-yl)(cyclopropyl) methanone]",,0.0001 to 10,,0.0001 to 10,0.0001 to 10,0.0001 to 10
"CC(C)S(=O)(=O)N1CC2CCC(C1)C2CC(O)c1cc(Cl)cc2cn[nH]c12 (stereo not drawn) [Compound P-0291, 1-(5-chloro-1H-indazol-7-yl)-2-(3-(isopropylsulfonyl)-3-azabicyclo[3.2.1]octan-8-yl)ethan-1-ol]",0.0001 to 10,0.0001 to 10,0.0001 to 10,0.0001 to 10,,
"CC1(C(O)c2cc(Cl)cc3cn[nH]c23)CCOCC1 (stereo not drawn) [Compound P-0236, (5-chloro-1H-indazol-7-yl)(4-methyltetrahydro-2H-pyran-4-yl)methanol]",0.0001 to 10,0.0001 to 10,0.0001 to 10,0.0001 to 10,,
"CC(C1CC1)(C1CC1)C(O)c1c(F)c(Cl)cc2cn[nH]c12 (stereo not drawn) [Compound P-0260, 1-(5-chloro-6-fluoro-1H-indazol-7-yl)-2,2-dicyclopropylpropan-1-ol]",0.0001 to 10,0.0001 to 10,0.0001 to 10,0.0001 to 10,,
"CCNC(=O)N1CCC(C(C)(C)[C@@H](O)c2cc(Cl)cc3cn[nH]c23)CC1 [Compound P-0428, (R)-4-(1-(5-chloro-1H-indazol-7-yl)-1-hydroxy-2-methylpropan-2-yl)-N-ethylpiperidine-1-carboxamide]",,0.0001 to 10,,0.0001 to 10,0.0001 to 10,> 10
"CC(C)(C1CCN(C(=O)Nc2ccccc2F)CC1)C(O)c1cc(Cl)cc2cn[nH]c12 (stereo not drawn) [Compound P-0178, 4-(1-(5-chloro-1H-indazol-7-yl)-1-hydroxy-2-methylpropan-2-yl)-N-(2-fluorophenyl)piperidine-1-carboxamide]",0.0001 to 10,0.0001 to 10,0.0001 to 10,0.0001 to 10,,
"O=C(Nc1ccccc1)N1CCC(C(F)(F)C(O)c2cc(Cl)cc3cn[nH]c23)CC1 (stereo not drawn) [Compound P-0150, 4-(2-(5-chloro-1H-indazol-7-yl)-1,1-difluoro-2-hydroxyethyl)-N-phenylpiperidine-1-carboxamide]",0.0001 to 10,0.0001 to 10,0.0001 to 10,0.0001 to 10,,
"CN(C)S(=O)(=O)N1CCC(C(C)(C)C(O)c2cc(Cl)cc3cn[nH]c23)CC1 (stereo not drawn) [Compound P-0308, 4-(1-(5-chloro-1H-indazol-7-yl)-1-hydroxy-2-methylpropan-2-yl)-N,N-dimethylpiperidine-1-sulfonamide]",0.0001 to 10,0.0001 to 10,0.0001 to 10,0.0001 to 10,,
"CS(=O)(=O)N1CC2(C1)CC(O)(c1cc(Cl)cc3cn[nH]c13)C2 [Compound P-0028, 6-(5-chloro-1H-indazol-7-yl)-2-(methylsulfonyl)-2-azaspiro[3.3]heptan-6-ol]",0.0001 to 10,10 to 100,> 10,0.0001 to 10,,
"CC(C)(C1CCN(C(=O)Nc2ccc(OC(F)(F)F)cc2)CC1)C(O)c1cc(Cl)cc2cn[nH]c12 (stereo not drawn) [Compound P-0403, 4-(1-(5-chloro-1H-indazol-7-yl)-1-hydroxy-2-methylpropan-2-yl)-N-(4-(trifluoromethoxy)phenyl)piperidine-1-carboxamide]",0.0001 to 10,0.0001 to 10,0.0001 to 10,0.0001 to 10,,
"OC1(c2cc(Cl)cc3cn[nH]c23)CC2(C1)C1CC3CC(C1)CC2C3 (stereo not drawn) [Compound P-0113, (1r,3r,5r,7r)-3′-(5-chloro-1H-indazol-7-yl)spiro[adamantane-2,1′-cyclobutan]-3′-ol]",0.0001 to 10,0.0001 to 10,0.0001 to 10,0.0001 to 10,,
CC(=O)N1C2CCC1CC(C(C)(C)C(O)c1c(F)c(Cl)cc3cn[nH]c13)C2 (stereo not drawn) [Compound P-0300],0.0001 to 10,0.0001 to 10,0.0001 to 10,0.0001 to 10,,
"OC1(c2cc(Cl)cc3[nH]ncc23)CC2(CCCCC2)C1 [Compound P-0371, 2-(6-chloro-1H-indazol-4-yl)spiro[3.5] nonan-2-ol]",0.0001 to 10,10 to 100,> 10,0.0001 to 10,,
"OC(c1cc(Cl)c(F)c2cn[nH]c12)C(F)(F)C1CCOCC1 (stereo not drawn) [Compound P-0218, 1-(5-chloro-4-fluoro-1H-indazol-7-yl)-2,2-difluoro-2-(tetrahydro-2H-pyran-4-yl)ethan-1-ol]",0.0001 to 10,0.0001 to 10,0.0001 to 10,0.0001 to 10,,

# — US10508085B2, “Compounds and methods for IDO and TDO modulation, and indications therefor” (Plexxikon Inc., priority 2016, dated 2019)
